Measured values published in paper PMC9864008, “Novel Black Seed Polysaccharide Extract-g-Poly (Acrylate) pH-Responsive Hydrogel Nanocomposites for Safe Oral Insulin Delivery: Development, In Vitro, In Vivo and Toxicological Evaluation” (Pharmaceutics, 2022).

Assays:
[1] = cited from earlier work
From the text: Humulin® R U-100 (containing human insulin with the strength 100 units/mL) is a sterile, colourless and aqueous solution formulation. It is a short-acting polypeptide hormone produced by an Escherichia coli strain obtained by using recombinant DNA technology. Firstly, it controls blood sugar by inhibiting hepatic glucose production, and secondly, it stimulates glucose uptake from peripheral skeletal muscles and fat cells. When administered subcutaneously (SC), it starts showing therapeutic response within 30 min and its effect lasts up to 8h, with the dose in the range of 0.05–0.4 units/kg. W ...

[2] = test system: diabetic male albino rabbits; assay: In vivo pharmacodynamics: blood glucose level in alloxan-induced diabetic rabbits; parameters: species or system rabbit; conditions: for Blood glucose level (% of initial, % BGL) at maximum decrease: n = 6, oral 10 IU/kg or SC 5 IU/kg, SC standard within first 3 h, Ins-BA hydrogel at 8 h, Ins-Mmt-BA hydrogel NC at 20 h
Protocol: A crossover study was designed to evaluate the insulin intestinal absorption and its release pattern over time from the developed BA hydrogels versus Ins-Mmt-BA hydrogel NCs. For this purpose, under the approval of IREC vide notification number IREC-2020-22, strictly following OECD guidelines, a total of 30 healthy male albino rabbits (≥2 kg weight) were taken. All animals were exposed to 12 h light and darkness cycles for 7 days to acclimatize with ambient atmosphere. For diabetes induction, all rabbits were administered alloxan monohydrate injection (Sigma-Aldrich, Germany) in a single intraperitoneal dose of 150 mg/kg. A 5% glucose solution was administered ad libitum for 24 h to avoid alloxan-induced hypoglycemia. To confirm diabetes induction all, animals’ blood was withdrawn daily from the ear marginal vein for checking blood glucose levels with the help of a glucometer and glucose strips (ACCU-CHEK®, Roche, Basel, Switzerland) for 10 days. Rabbits displaying fasting blood glucose levels higher than 150 mg/dL were considered as diabetic.

[3] = rabbit, in vivo
Protocol: After diabetes induction, the rabbits were placed into 5 groups (n = 6) randomly. The first group was orally administered with ground Ins-BA hydrogel (10 IU/kg) by an oral gavage needle with 5 mL of water to ensure complete dose administration. The second group was given orally the ground Ins-Mmt-BA hydrogel NC (10 IU/kg). The third group, acting as a positive control, was subcutaneously (SC) injected with standard Humulin-R® insulin (5 IU/kg). The fourth group was orally administered with insulin solution (10 IU/kg). The fifth group, acting as a negative control was administered with blank hydrogel. Blood samples were taken at specified intervals (0, 1, 2, 3, 4, 6, 8, 10, 12, 16, 20, 22 and 24 h) from the jugular vein and collected in EDTA containing sample collection tubes. The blood samples were then centrifuged at 3500 rpm for 15 min and separated plasma samples were stored at –20 °C for further detection of insulin by the HPLC method. At the same intervals, blood samples were also checked for blood glucose levels by a glucometer for observing the pharmacodynamic effect of the administered dosage forms [8].
For pharmacokinetic evaluation, a previously developed HPLC method for insulin detection in plasma was used with slight modifications [37]. The HPLC system (Hitachi, Tokyo, Japan) comprising a Gilson delivery pump with a 6-valved sample injection port fitted with a 20 µL sample loop, A UV-visible detector, thermostat column and chromato-integrator were used for sample analysis. The RP-C18 (150 × 4.60 mm ID, 5 µm) analytical column (Phenomenex, Torrance, CA, USA) was used. The mobile phase was prepared by 0.2 M Na2SO4 solution with pH adjusted to 2.3 with orthophosphoric acid mixed with acetonitrile (74:26) and filtered through 0.5 µm membrane filters and sonicated for 10 min to remove dissolved gas bubbles. The stock solution of insulin at 140 µg/mL strength was made in PBS. The serial dilutions of insulin solution (3.5 µg/mL to 140 µg/mL) after filtering through a 0.2 µm membrane filter were injected into a chromatographic column to find the linearity curve to develop a method for insulin detection. The linearity curve with the same serial dilutions of insulin in plasma was also determined. For sample preparation from collected plasma, 200 µL of thawed plasma (collected at different intervals) was mixed with 800 µL of n-hexane:dichloromethane (1:1). The mixture was centrifuged for 10 min at 3500 rpm (Hitachi Zentrifugen EBA 20, Hitachi Ltd., Tokyo, Japan). The supernatant with extracted insulin was used after filtering through a 0.22 µm membrane filter (Sartorius, Göttingen, Germany) for injection into the HPLC system. […]

[4] = intravenous, dose 0.1–0.2 units/kg
[5] = subcutaneous, dose 0.05–0.4 units/kg

Substance	Duration of effect after IV administration [1, 4]	Start of pharmacologic effect after IV administration [1, 4]	Duration of effect after SC administration [1, 5]	Start of therapeutic response after SC administration [1, 5] [min]	Blood glucose level (% of initial, % BGL) at 8 h ([2]; n = 6, SC 5 IU/kg, 8 h interval) [%]	Blood glucose level (% of initial, % BGL) at maximum decrease [2]	Cl [3] [mL/h]	Vd [3] [mL]	t1/2 [3] [h]	tmax [3] [h]
SC insulin standard: standard Humulin-R human insulin injection, 100 IU/mL, given subcutaneously	up to 4 h	10–15 min	up to 8 h	≤ 30	59.67	13.55%	13.361	67.326	3.493	3
oral insulin solution: insulin solution administered orally (10 IU/kg)	–	–	–	–	–	no significant decrease in % BGL	–	–	–	–
